In the NIST ThermoML archive (doi:10.1021/je0341918):

Assay: xn = mol fraction of the nth substance listed
Conditions: 101.3 kPa, Liquid

OCCCCO [1,4-butanediol] + O
Conditions | mass density [kg/m3] | viscosity [mPa·s]
293.15 K, x1 = 0.0218 | 1001.44 | 1.792
293.15 K, x1 = 0.0478 | 1005.97 | 2.65
293.15 K, x1 = 0.0789 | 1010.98 | 3.889
293.15 K, x1 = 0.1175 | 1015.71 | 5.788
293.15 K, x1 = 0.1665 | 1019.86 | 8.755
293.15 K, x1 = 0.2305 | 1022.86 | 11.86
293.15 K, x1 = 0.3179 | 1024.32 | 19.07
293.15 K, x1 = 0.4441 | 1024.18 | 31.72
293.15 K, x1 = 0.6426 | 1021.57 | 56.69
293.15 K, x1 = 0.7917 | 1019.04 | 73.61
293.15 K, x1 = 0.8663 | 1017.74 | 80.53
293.15 K, x1 = 1 | 1015.76 | 90.33
303.15 K, x1 = 0.0218 | 998.53 | 1.418
303.15 K, x1 = 0.0478 | 1002.4 | 1.957
303.15 K, x1 = 0.0789 | 1006.62 | 2.756
303.15 K, x1 = 0.1175 | 1010.6 | 3.954
303.15 K, x1 = 0.1665 | 1014.11 | 5.775
303.15 K, x1 = 0.2305 | 1016.62 | 7.633
303.15 K, x1 = 0.3179 | 1017.88 | 12.09
303.15 K, x1 = 0.4441 | 1017.65 | 19.66
303.15 K, x1 = 0.6426 | 1015.15 | 34.96
303.15 K, x1 = 0.7917 | 1012.77 | 45.5
303.15 K, x1 = 0.8663 | 1011.48 | 49.82
303.15 K, x1 = 1 | 1009.54 | 55.98
313.15 K, x1 = 0.0218 | 994.86 | 1.176
313.15 K, x1 = 0.0478 | 998.21 | 1.522
313.15 K, x1 = 0.0789 | 1001.79 | 2.053
313.15 K, x1 = 0.1175 | 1005.16 | 2.835
313.15 K, x1 = 0.1665 | 1008.13 | 4.008
313.15 K, x1 = 0.2305 | 1010.28 | 5.198
313.15 K, x1 = 0.3179 | 1011.36 | 8.018
313.15 K, x1 = 0.4441 | 1011.09 | 12.78
313.15 K, x1 = 0.6426 | 1008.76 | 22.43
313.15 K, x1 = 0.7917 | 1006.4 | 29.65
313.15 K, x1 = 0.8663 | 1005.15 | 32.53
313.15 K, x1 = 1 | 1003.31 | 35.74
323.15 K, x1 = 0.0218 | 990.45 | 0.981
323.15 K, x1 = 0.0478 | 993.4 | 1.222
323.15 K, x1 = 0.0789 | 996.45 | 1.573
323.15 K, x1 = 0.1175 | 999.34 | 2.124
323.15 K, x1 = 0.1665 | 1001.87 | 2.909
323.15 K, x1 = 0.2305 | 1003.72 | 3.683
323.15 K, x1 = 0.3179 | 1004.68 | 5.573
323.15 K, x1 = 0.4441 | 1004.42 | 8.706
323.15 K, x1 = 0.6426 | 1002.32 | 14.6
323.15 K, x1 = 0.7917 | 1000 | 19.29
323.15 K, x1 = 0.8663 | 998.84 | 21.11
323.15 K, x1 = 1 | 997.14 | 23.63
333.15 K, x1 = 0.0218 | 985.4 | 0.871
333.15 K, x1 = 0.0478 | 987.96 | 1.042
333.15 K, x1 = 0.0789 | 990.59 | 1.281
333.15 K, x1 = 0.1175 | 993.09 | 1.652
333.15 K, x1 = 0.1665 | 995.27 | 2.191
333.15 K, x1 = 0.2305 | 996.89 | 2.705
333.15 K, x1 = 0.3179 | 997.78 | 4.017
333.15 K, x1 = 0.4441 | 997.58 | 6.143
333.15 K, x1 = 0.6426 | 995.75 | 10.12
333.15 K, x1 = 0.7917 | 993.6 | 13.04
333.15 K, x1 = 0.8663 | 992.48 | 14.29
333.15 K, x1 = 1 | 990.93 | 16.17
343.15 K, x1 = 0.0218 | 979.61 | 0.783
343.15 K, x1 = 0.0478 | 981.88 | 0.905
343.15 K, x1 = 0.0789 | 984.16 | 1.081
343.15 K, x1 = 0.1175 | 986.37 | 1.338
343.15 K, x1 = 0.1665 | 988.29 | 1.719
343.15 K, x1 = 0.2305 | 989.74 | 2.055
343.15 K, x1 = 0.3179 | 990.6 | 2.991
343.15 K, x1 = 0.4441 | 990.49 | 4.471
343.15 K, x1 = 0.6426 | 988.97 | 7.211
343.15 K, x1 = 0.7917 | 987.21 | 9.223
343.15 K, x1 = 0.8663 | 986.17 | 10.11
343.15 K, x1 = 1 | 984.81 | 11.45
353.15 K, x1 = 0.0218 | 973.52 | 0.723
353.15 K, x1 = 0.0478 | 975.53 | 0.809
353.15 K, x1 = 0.0789 | 977.47 | 0.94
353.15 K, x1 = 0.1175 | 979.3 | 1.108
353.15 K, x1 = 0.1665 | 981.05 | 1.381
353.15 K, x1 = 0.2305 | 982.41 | 1.804
353.15 K, x1 = 0.3179 | 983.3 | 2.283
353.15 K, x1 = 0.4441 | 983.33 | 3.358
353.15 K, x1 = 0.6426 | 982.14 | 5.276
353.15 K, x1 = 0.7917 | 980.68 | 6.743
353.15 K, x1 = 0.8663 | 979.77 | 7.321
353.15 K, x1 = 1 | 978.59 | 8.28
